US7445802B2, “Site-specific in situ generation of allicin using a targeted alliinase delivery system for the treatment of cancers, tumors, infectious diseases and other allicin-sensitive diseases” (Yeda Research and Development Co. Ltd, priority 2000, dated 2008)

Assays:
CB-2 cells [1] = assay: [3H]-thymidine incorporation (cell proliferation) in CB-2 cells; format: cell-based, Chinese hamster; conditions: allicin 0-54 μM, 16 h
Procedure: (§1) The following cell lines were used: N87 human gastric tumor cell line expressing the ErbB-2 receptors (described by Park et al, 1990); CB-2 cell line, generated by transfection of Chinese hamster ovary (CHO) cells with mammalian expression vectors that direct expression of ErbB-2 (Tzahar et al, 1996); and 32D cell line known to be devoid of the ErbB-2 receptors (described by Pinkas-Kramarski, 1996).
[Methyl-^3H]thymidine incorporation (Amersham Pharmacia Biotech, UK) into DNA was measured in 96-well plates. Cells (1,000-20,000 cells/well) were grown 6 h after seeding at 37° C. Cells were treated with conjugates for 1 hour and then 3×washed with medium. […] Cells were harvested after 16 hours incubation at 37° C.
Different concentrations of pure allicin were applied to tissue cultured […] CB-2 cancer cells for quantitative determination of the effective concentration. Thus, CB-2 cells were cultured in 96-well plate (2000 cells/well) for 6-16 h at 37° C. Pure allicin was added (10 μl/well) from pre-diluted allicin solutions in PBS to final concentrations of 0-54 μM (0-9 μg/ml). [^3H]-Thymidine diluted with medium was added to the cell culture (0.8 μCi/well). Cells were harvested after incubation for 16 h at 37° C. and the level of incorporated [^3H]-thymidine was measured to determine the extent of cell proliferation. […]

CB-2 cells [2] = assay: Trypan blue viability of CB-2 cells; format: cell-based
Procedure: as §1
(§2) Viability of living cells was done after staining with Trypan Blue (0.025%) for 10 minutes.
(§3) Cell cultures of N87 (20,000 cells/well) were grown in 96-well plates and 32D cells were grown in suspension in 12-well plates (200,000 cells/ml). Cells were treated with: none, mAb ErbB-2 or mAb-ErbB-2-alliinase conjugate (total protein 2 μg/20,000 cells) for 1 hour at 37° C.

[3] = background statement; cited from earlier work
N-87 tumors = assay: In vivo assay of antitumor effects (tumor growth) in nude mice injected with N-87 cells; conditions: alliin alone i.p., control mice
Procedure: N-87 cultured cells (3-5×10^6) were injected subcutaneously into the back of the mice. One to 5 days later, groups of 6 to 8 mice received either none or mAb-alliinase conjugate by intravenous injection (20 μg mAb/mouse). Conjugates were injected with 3-4 days intervals.
All mice were supplemented with Pyridoxine (vitamin B6) in the drinking water (100 mg/L). […] Tumor size was measured every second day.
All the animal groups were injected with N-87 cells 1-5 days before any treatment. • Group 1. […] Mice were treated with mAb-alliinase conjugates and alliin was administered regularly as described below.
MAb-alliinase conjugate was injected I.V. every 3-4 days. Mice were treated ×5 with the conjugate (20 μg/mouse) in. 3-4 day intervals. Total amount of mAb in the conjugate/mouse was 0.1 mg.

N87 cancer cells = assay: Trypan blue viability of N87 cells; format: cell-based; conditions: alliin only, mAb ±alliin, or conjugate without alliin
Procedure: as §1, §2, §3

| Compound | [3H]-thymidine incorporation (DNA synthesis) (CB-2 cells [1]) | lethal concentration (CB-2 cells [2]; Trypan blue staining, CB-2 cells) | lifetime after being mixed with blood [3] | cell damage (Trypan blue) (CB-2 cells [2]; CB-2, alliin only, mAb ±alliin, or conjugate without alliin) | tumor size (N-87 tumors) | cell damage (Trypan blue) (N87 cancer cells) |
| --- | --- | --- | --- | --- | --- | --- |
| C=CCS[S+]([O-])CC=C (stereo not drawn) [allicin, thio-2-propene-1-sulfinic acid S-allyl ester] | inhibits DNA synthesis | about 20 μM | disappears within a few minutes |  |  |  |
| S-allyl-L-cysteine sulfoxide [alliin] |  |  |  | not damaged | no effect on the tumor size | not damaged |
